Measurements taken from patent US20250313575A1, “MACROCYCLES AS LRRK2 INHIBITORS, PHARMACEUTICAL COMPOSITIONS, AND USES THEREOF” (Merck Sharp & Dohme LLC, priority 2022, published 2025).

Target: GST-tagged truncated human mutant G2019S LRRK2 (Homo sapiens (Human), UniProt Q5S007, G2019S)
Test: LRRK2 G2019S Km ATP LanthaScreen assay
Format: biochemical
Conditions: G2019S LRRK2, 134 μM ATP (Km ATP), LRRKtide substrate
How it was run: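 TR-FRET assay with GST-tagged truncated human G2019S LRRK2 (1.25 nM), preincubated with compound 15 min, then reacted with fluorescein-LRRKtide and 134 μM ATP (Km) in Tris pH 8.5 buffer, 90 min, ambient temperature. Tb-anti-phospho-LRRKtide detection, 520/495 nm ratio; IC50 by 4-parameter logistic fit, top concentration 9.99 μM in DMSO, 10 points.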

Chain of GST-tagged truncated human mutant G2019S LRRK2 (Q5S007 970-2527 G2019S): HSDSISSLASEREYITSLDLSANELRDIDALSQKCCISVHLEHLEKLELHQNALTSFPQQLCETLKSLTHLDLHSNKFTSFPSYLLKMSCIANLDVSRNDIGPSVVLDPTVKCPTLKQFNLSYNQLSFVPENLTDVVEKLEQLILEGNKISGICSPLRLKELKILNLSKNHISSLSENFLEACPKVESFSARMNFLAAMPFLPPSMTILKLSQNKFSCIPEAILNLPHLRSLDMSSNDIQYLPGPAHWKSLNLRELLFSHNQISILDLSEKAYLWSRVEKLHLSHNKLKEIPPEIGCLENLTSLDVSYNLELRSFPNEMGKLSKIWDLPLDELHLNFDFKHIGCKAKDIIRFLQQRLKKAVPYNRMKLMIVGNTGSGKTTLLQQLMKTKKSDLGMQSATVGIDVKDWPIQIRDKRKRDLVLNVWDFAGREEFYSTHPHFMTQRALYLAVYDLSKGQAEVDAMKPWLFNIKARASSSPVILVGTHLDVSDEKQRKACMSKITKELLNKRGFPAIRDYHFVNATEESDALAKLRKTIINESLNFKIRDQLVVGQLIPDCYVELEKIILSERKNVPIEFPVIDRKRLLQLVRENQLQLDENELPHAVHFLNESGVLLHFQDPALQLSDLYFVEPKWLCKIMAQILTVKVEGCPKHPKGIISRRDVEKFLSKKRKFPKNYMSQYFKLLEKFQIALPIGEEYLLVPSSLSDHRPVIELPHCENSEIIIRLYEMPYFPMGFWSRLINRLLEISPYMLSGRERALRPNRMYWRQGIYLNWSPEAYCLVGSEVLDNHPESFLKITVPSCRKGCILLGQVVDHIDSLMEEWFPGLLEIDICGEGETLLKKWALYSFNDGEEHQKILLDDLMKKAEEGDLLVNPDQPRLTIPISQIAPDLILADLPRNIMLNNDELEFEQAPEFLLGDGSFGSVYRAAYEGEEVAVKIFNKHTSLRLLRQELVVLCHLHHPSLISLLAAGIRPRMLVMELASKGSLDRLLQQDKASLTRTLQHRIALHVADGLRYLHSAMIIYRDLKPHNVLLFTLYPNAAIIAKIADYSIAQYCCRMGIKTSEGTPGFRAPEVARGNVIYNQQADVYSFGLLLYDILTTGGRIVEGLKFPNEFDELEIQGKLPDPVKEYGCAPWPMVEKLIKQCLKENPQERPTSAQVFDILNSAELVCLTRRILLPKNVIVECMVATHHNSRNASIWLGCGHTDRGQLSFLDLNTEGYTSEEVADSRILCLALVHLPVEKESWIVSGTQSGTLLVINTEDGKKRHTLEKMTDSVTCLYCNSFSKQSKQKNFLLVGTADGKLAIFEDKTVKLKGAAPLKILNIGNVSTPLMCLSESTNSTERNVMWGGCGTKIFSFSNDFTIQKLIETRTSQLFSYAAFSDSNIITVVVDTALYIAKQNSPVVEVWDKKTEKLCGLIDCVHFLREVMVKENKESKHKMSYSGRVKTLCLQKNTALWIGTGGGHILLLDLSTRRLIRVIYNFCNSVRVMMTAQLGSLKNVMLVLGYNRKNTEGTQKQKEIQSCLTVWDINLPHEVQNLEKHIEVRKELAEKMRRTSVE

SMILES	LRRK2 pIC50
Cc1nn(C2CCOC2)c2c1OC[C@@H]1CC[C@H]1Nc1nc(ncc1C(F)(F)F)N2 (stereo partly drawn) [Ex-2.74, (10aR,12aR)-1-methyl-3-((S)- or (10aR,12aR)-1-methyl-3-((R)-tetrahydrofuran-3-yl)-8-(trifluoromethyl)-3,4,10,10a,11,12,12a,13-octahydro-5,9-(azeno)cyclobuta[k]pyrazolo[4,3-b][1]oxa[4,6,10]triazacyclotridecine]	>10.09
Cc1nn(C2CCC2)c2c1OCC1COCCC1Nc1nc(ncc1C(F)(F)F)N2 [Ex-2.35, (4aR,16aR)- and (4aS,16aS)-12-cyclobutyl-14-methyl-7-(trifluoromethyl)-3,4,4a,5,11,12,16,16a-octahydro-1H-6,10-(azeno)pyrano[4,3-k]pyrazolo[4,3-b][1]oxa[4,6,10]triazacyclotridecine]	8.56
Cc1nn(C2CCC2)c2c1OC[C@@H]1COC[C@H]1Nc1nc(ncc1C(F)(F)F)N2 (single isomer, unassigned) [Ex-2.27, (3aR,15aR)- or (3aS,15aS)-11-cyclobutyl-13-methyl-6-(trifluoromethyl)-2,3,3a,4,10,11,15,15a-octahydro-5,9-(azeno)furo[3,2-k]pyrazolo[4,3-b][1]oxa[4,6,10]triazacyclotridecine]	6.47
Cc1nn(C2CCC2)c2c1OC[C@@H]1CN(CCO1)c1nc(ncc1C(F)(F)F)N2 (single isomer, unassigned) [Ex-21.2, (6R)- or (6S)-1-cyclobutyl-3-methyl-12-(trifluoromethyl)-1,5,6,8,9,16-hexahydro-11,15-(azeno)-6,10-methanopyrazolo[4,3-e][1,4]dioxa[7,9,13]triazacyclopentadecine]	8.07
Cc1nn(C)c2c1OC[C@@H]1CN(C[C@H]1C)c1nc(ncc1C(F)(F)F)N2 [Ex-19.1]	>10.09
Cc1nn(C2CC2(F)F)c2c1OCC1COCC1Nc1nc(ncc1C(F)(F)F)N2 [Ex-2.59, (10aS,13aS)-3-((R)-2,2-difluorocyclopropyl)-1-methyl-8-(trifluoromethyl)-3,4,10a,11,13a,14-hexahydro-10H,13H-5,9-(azeno)furo[3,4-k]pyrazolo[4,3-b][1]oxa[4,6,10]triazacyclotridecine (10aS,13aS)-3-((S)-2,2-difluorocyclopropyl)-1-methyl-8-(trifluoromethyl)-3,4,10a,11,13a, 14-hexahydro-10H,13H-5,9-(azeno)furo[3,4-k]pyrazolo[4,3-b|[1]oxa|4,6,10]triazacyclotridecine]	9.71
CC(C)(C#N)c1nn(C2CCC2)c2c1OC[C@H]1CC[C@@H]1Nc1nc(ncc1C(F)(F)F)N2 [Ex-2.53, 2-((10aS,12aS)- or 2-((10aR,12aR)-3-cyclobutyl-8-(trifluoromethyl)-3,4,10,10a,11,12,12a,13-octahydro-5,9-(azeno)cyclobuta[k]pyrazolo[4,3-b][1]oxa[4,6,10]triazacyclotridecin-1-yl)-2-methylpropanenitrile]	9.64
Cc1nn(C2CC2)c2c1OC[C@@H]1CC[C@H]1Oc1nc(ncc1C(F)(F)F)N2 [Ex-14.1, (10aR,13aS)- or (10aS,13aR)-3-Cyclopropyl-1-methyl-8-(trifluoromethyl)-3,4,10a,11,12a,13-hexahydro-12H-5,9-(azeno)cyclobuta[k]pyrazolo[4,3-b][1,10]dioxa[4,6]diazacyclotridecine]	8.78
FC(F)(F)c1cnc2nc1NC1CCC1COc1c(C3COC3)nn(C3CCC3)c1N2 [Ex-2.72, (10aR,12aR)- or (10aS,12aS)-3-cyclobutyl-1-(oxetan-3-yl)-8-(trifluoromethyl)-3,4,10,10a,11,12,12a,13-octahydro-5,9-(azeno)cyclobuta[k]pyrazolo[4,3-b][1]oxa[4,6,10]triazacyclotridecine]	>10.09
Cc1nn(C2CCC2)c2c1OC[C@@H]1CC[C@@H]1Nc1nc(ncc1Cl)N2 [Ex-2.56, (10aS,12aR)-8-chloro-3-cyclobutyl-1-methyl-3,4,10,10a,11,12,12a,13-octahydro-5,9-(azeno)cyclobuta[k]pyrazolo[4,3-b][1]oxa[4,6,10]triazacyclotridecine]	>10.09
Cc1nn(C)c2c1OCC1(CC1)C(C)Nc1nc(ncc1C(F)(F)F)N2 (single isomer, unassigned) [Ex-2.15, (R)- or (S)-1′,3′,7′-trimethyl-10′-(trifluoromethyl)-1′,7′,8′,14′-tetrahydro-5′H-spiro[cyclopropane-1,6′-[9,13](azeno)pyrazolo[4,3-b][1]oxa[4,6,10]triazacyclotridecine]]	7.44
Cn1nc(C2CC2)c2c1OCC1CCC1Nc1nc(ncc1C(F)(F)F)N2 [Ex-1.9, (10aR,12aS)- or (10aS,12aR)-3-cyclopropyl-1-methyl-8-(trifluoromethyl)-1,4,10,10a,11,12,12a,13-octahydro-5,9-(azeno)cyclobuta[k]pyrazolo-[3,4-b][1]oxa[4,6,10]triazacyclo-tridecine]	>10.09
Cc1nn(C)c2c1OC[C@@H]1CCC(C1)Nc1nc(ncc1C(F)(F)F)N2 [Ex-2.87, (5^1S,5^3R)-1^1,1^3-dimethyl-3^5-(trifluoromethyl)-1^1H-7-oxa-2,4-diaza-3(2,4)-pyrimidina-1(5,4)-pyrazola-5(1,3)-cyclopentanacycloheptaphane]	6.84
Cc1cnc2nc1N[C@H](C)CCOc1c(c(C)nn1C(C)(C)CO)N2 [Ex-8.1, (R)-2-methyl-2-(3,8,11-trimethyl-10,11,12,13-tetrahydro-5,9-(azeno)pyrazolo[3,4-b][1]oxa[4,6,10]triazacyclotridecin-1 (4H)-yl)propan-1-ol]	>10.09
CC(C)c1nn(C(C)(C)CO)c2c1Nc1ncc(C(F)(F)F)c(n1)N[C@H](C)CCO2 [Ex-7.4, (R)-2-(3-isopropyl-11-methyl-8-(trifluoromethyl)-10,11,12,13-tetrahydro-5,9-(azeno)pyrazolo[3,4-b][1]oxa[4,6,10]triazacyclotridecin-1(4H)-yl)-2-methylpropan-1-ol]	>10.09
COC1CCC1n1nc(C)c2c1Nc1ncc(C(F)(F)F)c(n1)NC1COCC1CO2 [Ex-2.36, (10aS,13aS)-3-((1R,2R)-(10aS,13aS)-3-((1S,2R)-(10aS,13aS)-3-((1R,2S)-(10aS,13aS)-3-((1R,2R)-(10aR,13aR)-3-((1S,2R)-(10aR,13aR)-3-((1R,2S)-2-methoxycyclobutyl)-1-methyl-8-(trifluoromethyl)-3,4,10a,11,13a,14-hexahydro-10H,13H-5,9-(azeno)furo[3,4-k]pyrazolo[4,3-b][1]oxa[4,6,10]triazacyclotridecine]	6.31
CCOC(=O)Cc1nn(C2CC2)c2c1OC[C@@H]1COC[C@H]1Nc1nc(ncc1C(F)(F)F)N2 [Ex-2.67, ethyl 2-((10aS,13aS)-3-cyclopropyl-8-(trifluoromethyl)-3,4,10a,11,13a,14-hexahydro-10H,13H-5,9-(azeno)furo[3,4-k]pyrazolo[4,3-b][1]oxa[4,6,10]triazacyclotridecin-1-yl)acetate]	9.45
COC(=O)C(C)(C)n1nc(C)c2c1OCC[C@@H](C)Nc1nc(ncc1C(F)(F)F)N2 [Ex-1.5, methyl (R)-2-(3,11-dimethyl-8-(trifluoromethyl)-10,11,12,13-tetrahydro-5,9-(azeno)pyrazolo[3,4-b][1]oxa[4,6,10]triazacyclotridecin-1(4H)-yl)-2-methylpropanoate]	8.73
Cc1nn(C)c2c1OCC1(CNc3nc(ncc3C(F)(F)F)N2)CC12CCOCC2 (single isomer, unassigned) [Ex-2.17, (R)- or (S)-1″,3″-dimethyl-10″- (trifluoromethyl)-1″,2,3,5,6,7″,8″,14″- octahydro-5″H-dispiro[pyran-4,1′-cyclopropane-2′,6″- [9,13](azeno)pyrazolo[4,3-b][1]oxa[4,6,10]triazacyclotridecine]]	8.42
FC(F)(F)c1cnc2nc1N[C@@H]1COC[C@H]1COc1ncccc1N2 [Ex-15.6, (11aS,14aS)-9-(trifluoromethyl)-11a,12,14a,15-tetrahydro-5H,11H,14H6,10-(azeno)furo[3,4-k]pyrido[2,3-b][1]oxa[4,6,10]triazacyclotridecine]	9.08
Cc1nn(C)c2c1OCC1CC[C@H]1Nc1nc(ncc1C(F)(F)F)N2 (stereo partly drawn) [Ex-2.10, (10aR,12aR)- or (10aS,12aS)-1,3-dimethyl-8-(trifluoromethyl)-3,4,10,10a,11,12,12a,13-octahydro-5,9-(azeno)cyclobuta[k]pyrazolo[4,3-b][1]oxa[4,6,10]triazacyclotridecine]	>10.09
Cc1nn(C)c2c1OCC1CC[C@H]1Nc1nc(ncc1C(F)(F)F)N2 (stereo partly drawn) [Ex-2.13, (10aR,12aS)- or (10aS,12aR)-1,3-dimethyl-8-(trifluoromethyl)-3,4,10,10a,11,12,12a,13-octahydro-5,9-(azeno)cyclobuta[k]pyrazolo[4,3-b][1]oxa[4,6,10]triazacyclotridecine]	>10.09

Same assay, conditions: G2019S LRRK2, 134 μM ATP (Km ATP), LRRKtide substrate; read-out: LRRK2 pIC50 (converted)

SMILES	IC50 [nM]
Cc1nn(C)c2c1OC[C@H]1COC[C@H]1Nc1nc(ncc1C(F)(F)F)N2 (single isomer, unassigned) [Ex-2.25, (10aS,13aR)- or (10aR,13aS)-1,3-dimethyl-8-(trifluoromethyl)-3,4,10a,11,13a,14-hexahydro-10H,13H-5,9-(azeno)furo[3,4-k]pyrazolo[4,3-b][1]oxa[4,6,10]triazacyclotridecine]	28.2
